{"source": "patent US8778927B2", "about": "“Smoothened antagonism for the treatment of hedgehog pathway-related disorders” (Novartis AG, priority 2008, dated 2014)", "key": {"[1]": {"test_system": "Ptch+/− medulloblastoma allograft", "experiment": "Ptch+/− medulloblastoma allograft model, continuous dosing", "format": "in vivo, mouse", "details": "100 mg/kg bid, day 48", "from_the_text": "(§1) Mouse medulloblastoma cells (1.0−5.0×10^6), dissociated directly from tumor fragments originally derived from spontaneously arising medulloblastomas in Ptch+/−p53−/−, Ptch+/−Hic+/− or Ptch+/− mice, were inoculated subcutaneously into the right flank of Harlan nu/nu mice. Treatment was initiated approximately 7-10 days post implantation. Animals were randomized into treatment groups with similar mean tumor volumes that ranged from approximately 250-300 mm3. Tumor volumes (mm3) and body weights (g) were recorded two or three times per week from all groups for analysis. Dose was body weight adjusted at time of dosing. Comparisons between treatment groups was performed using a non-parametric Kruskal-Wallis/Wilcoxon Rank Sum Test.\n(§2) Tumors were calipered in two dimensions, and the volumes were calculated using the formula: (length×width2)/2, where length is the longer of the two measurements and width is the shorter one. Percent treatment/control (% T/C) values were calculated using the following formula: % T/C=100×ΔTf−i/ΔCf−i if ΔTf−i>0, % T/T0=100×ΔTf−i/T0 if ΔTf−i<0 (regression). A partial responder (PR) was defined as an animal whose tumor was less than 50% of the initial tumor volume by the end of the study. An animal with no palpable tumor by the end of study is defined as a complete responder (CR).\nTreatments started on day 7 post implantation (5 million cells/animal). Compound 1 was administered po at 10 mg/kg qd, 20 mg/kg qd, 40 mg/kg qd, 80 mg/kg qd and 160 mg/kg qd for the length of study. Compound 2 was administered at 100 mg/kg bid for the length of study. Vehicle control of Compound 1 was 0.5% methylcellulose 0.5% Tween 80 in water. The initial group size consisted of 8 animals. The vehicle group was taken down 7 days after treatment (tumors greater than 10% of mouse body weight). Similar resistance was seen to that observed with the Ptc+/−Hic+/− model, with a subset of the complete responders growing back and others showing complete regression (Table 2). Sustained regression listed in Table 2 represent number of complete regressions still present at the end of study on day 48."}, "[2]": {"test_system": "Ptch+/−Hic+/− medulloblastoma allograft", "experiment": "Ptch+/−Hic+/− medulloblastoma allograft model, continuous dosing", "format": "in vivo, mouse", "details": "for number of sustained complete regressions: dosed day 10 to day 56, day 56", "from_the_text": "as §1, §2\nTreatments started on day 7 post implantation (5 million cells/animal). Compound 1 was administered po at 5 mg/kg bid, 10 mg/kg bid, 20 mg/kg qd, 20 mg/kg bid, 40 mg/kg bid and 80 mg/kg bid for the length of study. Compound 2 was administered at 100 mg/kg bid for the length of study. Vehicle control of Compound 1 was 0.5% methylcellulose 0.5% Tween 80 in water. The initial group size consisted of 8 animals. The vehicle group was taken down 10 days after treatment (tumors greater than 10% of mouse body weight).\nSustained regressions listed in the Table 1 represent number of complete responses still present at the end of study on day 47.\nTwo additional Smo inhibitors, Compound 3 and Compound 4 were evaluated in follow-up studies in the Ptch+/−Hic+/− model upon continous dosing."}, "[3]": {"test_system": "Ptch+/−p53−/− medulloblastoma allograft", "experiment": "Ptch+/−p53−/− medulloblastoma allograft model, continuous dosing", "format": "in vivo, mouse", "details": "100 mg/kg bid, 25 days, FIG. 1", "from_the_text": "as §1\nas §2, with “(CR). […]” for “(CR).”"}, "[4]": {"test_system": "Ptch+/−Hic+/− medulloblastoma allograft", "experiment": "combination of Smo inhibitor and PI3K inhibitor in Ptch+/−Hic+/− medulloblastoma allograft model", "format": "in vivo, mouse", "from_the_text": "Mouse medulloblastoma cells (1.0-5.0×10^6), dissociated directly from tumor fragments originally derived from spontaneously arising medulloblastomas in Ptch+/-p53-/-, Ptch+/-Hic+/- or Ptch+/- mice, were inoculated subcutaneously into the right flank of Harlan nu/nu mice. Treatment was initiated approximately 7-10 days post implantation. Animals were randomized into treatment groups with similar mean tumor volumes that ranged from approximately 250-300 mm3. Tumor volumes (mm3) and body weights (g) were recorded two or three times per week from all groups for analysis. Dose was body weight adjusted at time of dosing. Comparisons between treatment groups was performed using a non-parametric Kruskal-Wallis/Wilcoxon Rank Sum Test. Tumors were calipered in two dimensions, and the volumes were calculated using the formula: (length×width2)/2, where length is the longer of the two measurements and width is the shorter one. […] A partial responder (PR) was defined as an animal whose tumor was less than 50% of the initial tumor volume by the end of the study. An animal with no palpable tumor by the end of study is defined as a complete responder (CR). Next, a combination of Compound 1 and Compound A was explored in the Ptch+/-Hic+/- medulloblastoma allograft model. […] Animals treated with vehicle control and with compound A had to be sacrificed around day 20 and 25, respectively, because their tumor volume reached 1500 mm3. […] Similar results were obtained for animals treated with Compound 1 alone for the first 10 days, followed by single agent treatment with Compound A (data not shown). […] Next, a combination of Compound 1 and Compound B was explored in the Ptch+/-Hic+/- medulloblastoma allograft model. […] Animals treated with vehicle control and with compound B reached the endpoint around day 12 to 15, respectively, because their tumor volume reached 700 mm3."}, "[5]": {"test_system": "sensitive medulloblastoma tumor cells", "experiment": "ex-vivo medulloblastoma proliferation assay (3H thymidine, 48 h), sensitive tumor cells", "format": "cell-based", "details": "Mus musculus, Sensitive tumor, Table 3", "protocol": "(§3) The effect of statins (e.g., simvastatin, flustatin) on the proliferation of medulloblastoma cells derived from sensitive and resistant Ptch+/− cells was evaluated by using an “ex-vivo medulloblastoma proliferation assay.” Using Ptch+/−p53−/−, Ptch+/−Hic+/− or Ptch+/− medulloblastoma tumors freshly harvested from allografted nude mice, we have developed a short-term 48 h proliferation assay that enables us to assess the in vitro potency of Smo inhibitors. The read-out for proliferation uses incorporation of 3H thymidine. The assay reflects the in vivo sensitivity of tumor cells to Compound 1.\n(§4) The effect of PI3K inhibitors (e.g., compounds such as Compound A) on the proliferation of medulloblastoma cells derived from sensitive and resistant medulloblastoma cells was evaluated by using an “ex-vivo medulloblastoma proliferation assay,” as described above."}, "[6]": {"test_system": "Akt and S6 phosphorylation", "experiment": "Western blot of ex-vivo medulloblastoma assay", "format": "cell-based, mouse", "details": "sensitive and resistant cells, FIG. 5"}, "[7]": {"test_system": "resistant medulloblastoma tumor cells", "experiment": "ex-vivo medulloblastoma proliferation assay (3H thymidine, 48 h), resistant tumor cells", "format": "cell-based, mouse", "protocol": "as §3, §4"}, "[8]": {"details": "Mus musculus, Resistant tumor, Table 3"}}, "note": "“And” between values parts separate entries of the source, which are not always exact repeats. Identical values can stand only once. “Also recorded” adds a separate entry of the source."}
{"compound": "COc1cc(OC)cc(C(=O)Nc2ccc(Cl)c(-c3nc4cc(N(C)C)ccc4[nH]3)c2)c1", "note": "[Compound 2, N-[4-Chloro-3-(5-dimethylamino-1H-benzoimidazol-2-yl)-phenyl]-3,5-dimethoxy-benzamide, reference compound]", "values": [{"measurement": "sustained regressions (complete regressions still present at end of study)", "setting": "[1]", "result": "0/8"}, {"measurement": "sustained regressions (complete responses still present at end of study)", "setting": "[2]; 100 mg/kg bid po, day 47", "result": "0/8"}, {"measurement": "tumor response on continuous dosing", "setting": "[3]", "result": "initially caused regression, followed by tumor regrowth"}]}
{"compound": "Cc1c(Cc2ccccc2)nnc(N2CCN(c3cnc(C(C)(C)O)cn3)[C@H](C)C2)c1C", "note": "[Compound 3, 2-[(R)-4-(6-Benzyl-4,5-dimethyl-pyridazin-3-yl)-2-methyl-3,4,5,6-tetrahydro-2H-[1,2]bipyrazinyl-5′-yl]-propan-2-ol]", "values": [{"measurement": "number of sustained complete regressions", "setting": "[2]; 40 mg/kg bid", "result": "3/8"}, {"measurement": "number of sustained complete regressions", "setting": "[2]; 40 mg/kg qd", "result": "0/8"}, {"measurement": "number of sustained complete regressions", "setting": "[2]; 60 mg/kg qd", "result": "0/8"}, {"measurement": "number of sustained complete regressions", "setting": "[2]; 80 mg/kg qd", "result": "0/8"}, {"measurement": "number of sustained complete regressions", "setting": "[2]; 100 mg/kg qd", "result": "3/8"}, {"measurement": "tumor response on continuous dosing", "setting": "[2]; follow-up studies, continuous dosing", "result": "initially induced tumor regression followed by tumor regrowth in the presence of compound"}]}
{"compound": "Nc1cc(C(F)(F)F)c(-c2cc(N3CCOCC3)nc(N3CCOCC3)n2)cn1", "note": "[Compound A, 5-(2,6-di-morpholin-4-yl-pyrimidin-4-yl)-4-trifluoromethyl-pyridin-2-ylamine]", "values": [{"measurement": "effect on tumor growth", "setting": "[4]; 60 mg/kg qd, FIG. 6A", "result": "only a moderate effect on tumor growth compared to vehicle control"}, {"measurement": "time to endpoint (tumor volume >1500 mm3)", "setting": "[4]; 60 mg/kg qd, FIG. 6B", "result": "~25", "unit": "days"}, {"measurement": "IC50", "setting": "[5]", "result": 0.2, "unit": "µM"}, {"measurement": "inhibition of Akt and S6 phosphorylation", "setting": "[6]", "result": "inhibits Akt and S6 phosphorylation in both sensitive and resistant cells; also recorded: inhibited Akt and S6 phosphorylation both in sensitive and resistant tumors at similar concentrations"}, {"measurement": "IC50", "setting": "[7]; [8]", "result": 0.22, "unit": "µM"}, {"measurement": "IC50", "setting": "[7]; Mus musculus, ptch+/− Hic+/−, Resistant, Table 4", "result": 0.3, "unit": "µM"}, {"measurement": "IC50", "setting": "[7]; ptch+/− Hic+/−, Resistant, Table 4", "result": "0.17 µM and 0.15 µM"}, {"measurement": "inhibition of proliferation, sensitive compared with resistant tumors", "setting": "[7]; sensitive and resistant tumors", "result": "inhibited both sensitive and resistant tumors with similar IC50s"}]}
{"compound": "Cn1c(=O)n(-c2ccc(C(C)(C)C#N)cc2)c2c3cc(-c4cnc5ccccc5c4)ccc3ncc21", "note": "[Compound B, 2-methyl-2-[4-(3-methyl-2-oxo-8-quinolin-3-yl-2,3-dihydro-imidazo[4,5-c]quinolin-1-yl)-phenyl]-propionitrile]", "values": [{"measurement": "effect on tumor growth", "setting": "[4]; 40 mg/kg qd, FIG. 7A", "result": "no effect on tumor growth compared to vehicle control"}, {"measurement": "time to endpoint (tumor volume >700 mm3)", "setting": "[4]; 40 mg/kg qd, FIG. 7B", "result": "~15", "unit": "days"}]}
{"compound": "CCC(C)(C)C(=O)O[C@H]1C[C@@H](C)C=C2C=C[C@H](C)[C@H](CC[C@@H]3C[C@@H](O)CC(=O)O3)[C@H]21", "note": "[Simvastatin, reference compound]", "values": [{"measurement": "IC50", "setting": "[5]", "result": 0.004, "unit": "µM"}, {"measurement": "IC50", "setting": "[7]; [8]", "result": 0.004, "unit": "µM"}]}
